Experimental data taken from patent publication US11274332B2, “Methods of administering 3,4-diaminopyridine” (SERB SA, priority 2011, dated 2022).
Where two headings read alike, the source gives them in different places.

Experiment: Example 18 Part 1: single ascending dose PK (5-30 mg) in slow and fast acetylators
Type: in vivo, human
Conditions: for half-life / Cmax: both sexes, human, plasma; for half-life: oral, 5-30 mg, read-out: Mean terminal elimination half-lives; for Cmax: po, single oral doses 5 to 30 mg, read-out: mean Cmax, range over doses
Experimental: The following method was used to analyze concentrations of 3,4-diaminopyridine and N-(4-aminopyridin-3-yl)acetamide in plasma and urine samples for the experiments in Example 18. In the LC/MS/MS method, the human plasma and urine samples were extracted using acetonitrile containing 0.1% formic acid. Samples were analyzed by using HPLC with positive ion electrospray MS/MS detection. The column was an Atlantis HILIC Silica column (3 μm, 3×50 mm) at a temperature of 40° C. Mobile phase A was water containing ammonium formate (20 mM) and 0.1% formic acid. Mobile phase B was acetonitrile/isopropanol (90/10; v/v) containing 0.1% formic acid. The flow rate was 0.90 mL/minute. The gradient conditions for human plasma and urine samples were as follows:
The LC/MS/MS method was validated to quantify 3,4-DAP in human plasma in the linear calibration range of 0.500 to 500 ng/mL and from 1.00 to 1000 ng/mL for the 3-N-acetyl metabolite.
The primary objective of the study was to assess the safety and tolerability of 3,4-DAP phosphate after single and multiple doses. The secondary objectives of the study were • Part 1 only: To determine the dose-related PK profile of amifampridine and of 3-N-acetyl amifampridine after single, escalating doses of 3,4-DAP phosphate • Part 2 only: To assess the steady-state plasma PK and accumulation of amifampridine and of 3-N-acetyl amifampridine over multiple days of dosing with 3,4-DAP phosphate An exploratory objective was to examine the overall activity of the N-acetyl transferase enzymes on the metabolism of amifampridine by assessing the PK of amifampridine and 3-N-acetyl amifampridine with phenotypic acetylation activity and genotyping determination of NAT2 gene polymorphisms. Study Design and Plan
This open-label study in healthy subjects (male and female) was conducted in 2 parts. A total of 26 healthy male and female subjects, 12 in Part 1 (at least 5 of each sex), 4 in Part 2 Group 1, and 10 in Part 2 Group 2 (at least 4 of each sex) were enrolled into the study. The same subjects were not enrolled to participate in both parts. Subjects in Part 2 were dosed only after all subjects of Part 1 completed dosing and at least 24-hours of follow-up safety evaluation after the last dose were completed.
All subjects were characterized for their metabolic acetylation phenotype and NAT2 genotype in order to divide subjects into two groups of acetylators. Volunteers were genetically typed for highly variant alleles of the N-acetyl transferase 2 enzyme (NAT2) domain on chromosome 8 (according to Example 16) and were phenotyped for acetylation rates with a caffeine challenge test (according to Example 15a). Approximately equal numbers of slow and fast acetylators (as defined by a caffeine challenge test in Example 15a) were enrolled in each group. In Part 2, very slow acetylators with NAT2 activity (ratio 1, Example 15a) below 0.06 were excluded from participation in the study. In each part of the study, subjects were assessed for PK, safety, and tolerability and all doses were administered within 30 min of ingestion of a meal or a snack.
Part 1 was a dose-proportionality study in 12 healthy subjects each receiving 4 ascending single oral doses of 3,4-DAP phosphate in a sequential manner (5 mg, 10 mg, 20 mg, and 30 mg). For all 12 subjects, the first 3 doses of oral 3,4-DAP phosphate (5-20 mg) were administered on 3 consecutive days (Days 1-3). Two fast and two slow acetylators (as defined by a caffeine challenge test in Example 15a) were selected as the first 4 enrolled subjects (sentinel subjects). For the 2 fast acetylators the 30 mg dose was administered on Day 4. […] Safety and tolerability data collected for all 4 subjects were reviewed and the safety and tolerability results of the 30 mg dose for these 4 sentinel subjects were acceptable. The 30 mg dose was given to the remaining 8 non-sentinel subjects on Day 7. […]

SMILES: Nc1ccncc1N [3,4-DAP, 3,4-diaminopyridine]
- Mean AUC0-t Slow/fast Ratio (5 mg single dose): 10.4
- Mean CL/F Slow/fast Ratio (5 mg single dose): 0.114
- Mean Cmax Slow/fast Ratio (5 mg single dose): 4.50
- Mean t1/2 Slow/fast Ratio (5 mg single dose): 3.68
- Mean AUC0-t Slow/fast Ratio (10 mg single dose): 6.94
- Mean CL/F Slow/fast Ratio (10 mg single dose): 0.163
- Mean Cmax Slow/fast Ratio (10 mg single dose): 3.47
- Mean t1/2 Slow/fast Ratio (10 mg single dose): 2.15
- Mean AUC0-t Slow/fast Ratio (20 mg single dose): 5.75
- Mean CL/F Slow/fast Ratio (20 mg single dose): 0.186
- Mean Cmax Slow/fast Ratio (20 mg single dose): 3.50
- Mean t1/2 Slow/fast Ratio (20 mg single dose): 2.38
- Mean AUC0-t Slow/fast Ratio (30 mg single dose): 5.29
- Mean CL/F Slow/fast Ratio (30 mg single dose): 0.196
- Mean Cmax Slow/fast Ratio (30 mg single dose): 3.51
- Mean t1/2 Slow/fast Ratio (30 mg single dose): 1.88
- half-life (fast acetylators): 0.603 to 1.65 h
- half-life (slow acetylators): 2.22 to 3.11 h
- Cmax (fast acetylator phenotype): 0.00398 to 0.0255 µg/mL
- Cmax (slow acetylator phenotype): 0.0179 to 0.0896 µg/mL
- AUC increase over 6-fold dose range (5 to 30 mg) (fast acetylators): 15.1 fold
- Cmax increase over 6-fold dose range (5 to 30 mg) (fast acetylators): 6.41 fold
- AUC increase over 6-fold dose range (5 to 30 mg) (slow acetylators): 7.64 fold
- Cmax increase over 6-fold dose range (5 to 30 mg) (slow acetylators): 5.01 fold
